Laboratory results from patent publication US20250041298A1, “CDK4 INHIBITOR FOR THE TREATMENT OF CANCER” (Pfizer Inc., priority 2021, published 2025).
Values joined by “and” are separate entries in the source; they are usually repeats but may differ in a detail not shown here. Equal entries are not always repeated. Where two headings read alike, the source gives them in different places. Marks after values point to notes of the source that are not given here.

Key:
[1] = tested on: HR+, HER2+ BT474 breast cancer spheroids; assay: Multicellular tumor spheroid growth inhibition (SGI), BT474; type: cell-based, human
Description: The purpose of this example was to evaluate the combination effect of PF-07220060 and endocrine therapy in multicellular tumor spheroid growth inhibition (SGI). To model the characteristics and cellular behavior of human tumors, the activity of PF-07220060 was evaluated in three dimensional MCTS models of HR+ breast cancer and AR+ prostate cancer following PF-07220060 treatment as a single agent and in combination with fulvestrant • 1) in HR+, HER2-T47D breast cancer spheroids. • 2) in HR+, HER2+BT474 breast cancer spheroids, • 3) in BT474 spheroids, and • 4) in AR+ prostate carcinoma cell line (LNCaP) prostate cancer spheroids. Spheroids were treated with increasing concentrations of 100, 300, or 1000 nM PF-07220060 and compared to palbociclib at the clinically relevant concentration of 30 nM. Single agent PF-07220060 inhibited spheroid growth in a dose-dependent manner, with highest efficacy (86% SGI over the duration of treatment with 1000 nM) shown in the T47D BC spheroid model (Table 1). Combining 100 nM PF-07220060 with 1 nM fulvestrant in T47D cells increased SGI to 96% compared to either single agent alone (57 to 67% SGI with 100 nM PF-07220060 or 79% SGI with fulvestrant) (Table 1). BT474 spheroids were relatively less sensitive to PF-07220060 resulting in 52% SGI at 1000 nM.

[2] = Phase 1/1b clinical trial: plasma pharmacokinetics of PF-07220060; type: in vivo, human; details: for Cmax / AUC / Tmax / half-life: po; for half-life: arithmetic mean
Description: Oral PF-07220060 was administered with at least 8 oz (240 mL) of water on an empty stomach (except during the food effect evaluation on Day-7 in Part 1D). No food or liquids other than water was consumed for 2 hours before and 1 hour following each dose throughout the study for BID dosing. No food or liquids other than water was consumed for 2 hours before and 2 hours after each dose throughout the study for QD dosing.
In the ongoing Phase 1/1b Study, as of Aug. 30, 2022, preliminary PK data for PF-07220060 as monotherapy (Part 1A) and in combination with endocrine therapy (Part 1B and Part 1C) was available from 60 participants with advanced solid tumors. PF-07220060 was administered orally as a single agent at doses ranging from 100 to 500 mg BID, and in combination with either letrozole or fulvestrant at 300 to 400 mg BID. Available plasma concentration-time data of PF-07220060 were analyzed using noncompartmental methods.
Preliminary noncompartmental PK analysis was conducted based on available samples collected from participants in the Study. […] Table 4 presents the summary of PK parameters for PF-07220060 as monotherapy, and in combination with letrozole or fulvestrant.

[3] = 200 mg BID oral monotherapy (Part 1A), C1D15, geometric mean
[4] = 300 mg BID oral + fulvestrant (Part 1C), C1D15, geometric mean
[5] = 300 mg BID oral + letrozole (Part 1B), C1D15, geometric mean
[6] = 300 mg BID oral monotherapy (Part 1A), C1D15, geometric mean
[7] = 400 mg BID oral + fulvestrant (Part 1C), C1D15, geometric mean
[8] = 400 mg BID oral + letrozole (Part 1B), C1D15, geometric mean
[9] = 400 mg BID oral monotherapy (Part 1A), C1D15, geometric mean

SMILES: CC(C)n1c(C(C)(C)O)nc2c(F)cc(-c3nc(N[C@@H]4CCOC[C@H]4O)ncc3Cl)cc21 [PF-07220060, 1,5-anhydro-3-({5-chloro-4-[4-fluoro-2-(2-hydroxypropan-2-yl)-1-(propan-2-yl)-1H-benzimidazol-6-yl]pyrimidin-2-yl}amino)-2,3-dideoxy-D-threo-pentitol]
- SGI ([1]; 100 nM single agent): 9%
- SGI ([1]; 300 nM single agent): 16% and 26% and 20%
- SGI ([1]; 1000 nM single agent): 52%
- CL/F ([2]; 100 mg BID oral monotherapy (Part 1A), C1D15, geometric mean, n = 2): 24.61 L/h
- CL/F [2, 3]: 31.41 L/h
- Cmin [2, 3]: 440 ng/mL
- CL/F [2, 4]: 38.02 L/h
- Cmin [2, 4]: 347.4 ng/mL
- CL/F [2, 5]: 28.95 L/h
- Cmin [2, 5]: 487.1 ng/mL
- CL/F [2, 6]: 37.06 L/h
- Cmin [2, 6]: 470.4 ng/mL
- CL/F [2, 7]: 41.86 L/h
- Cmin [2, 7]: 563.3 ng/mL
- CL/F [2, 8]: 34.9 L/h
- Cmin [2, 8]: 728.3 ng/mL
- CL/F [2, 9]: 49.98 L/h
- Cmin [2, 9]: 450.3 ng/mL
- Cmin ([2]; 500 mg BID oral monotherapy (Part 1A), C1D15, geometric mean): 848.8 ng/mL
- CL/F ([2]; 500 mg BID oral monotherapy (Part 1A), C1D15, n = 1): 40.1^a L/hr
- Cmax ([2]; human, plasma, 100 mg, 100 mg BID oral monotherapy (Part 1A), C1D1 post first dose, geometric mean): 280 ng/mL
- AUC ([2]; human, plasma, 100 mg, 100 mg BID oral monotherapy (Part 1A), C1D1 post first dose, geometric mean, read-out: AUC12): 1780 ng·h/mL
- Tmax ([2]; human, plasma, 100 mg, 100 mg BID oral monotherapy (Part 1A), C1D1 post first dose, median, read-out: Tmax): 2 h
- AUC ([2]; human, plasma, 100 mg, 100 mg BID oral monotherapy (Part 1A), C1D15, geometric mean, n = 2, read-out: AUCtau): 4060 ng·h/mL
- Cmax ([2]; human, plasma, 100 mg, 100 mg BID oral monotherapy (Part 1A), C1D15 post multiple doses, geometric mean): 617 ng/mL
- Tmax ([2]; human, plasma, 100 mg, 100 mg BID oral monotherapy (Part 1A), C1D15 post multiple doses, median, read-out: Tmax): 1 h
- Cmax ([2]; human, plasma, 200 mg, 200 mg BID oral monotherapy (Part 1A), C1D1 post first dose, geometric mean): 454 ng/mL
- AUC ([2]; human, plasma, 200 mg, 200 mg BID oral monotherapy (Part 1A), C1D1 post first dose, geometric mean, read-out: AUC12): 2330 ng·h/mL
- Tmax ([2]; human, plasma, 200 mg, 200 mg BID oral monotherapy (Part 1A), C1D1 post first dose, median, read-out: Tmax): 3.9 h
- half-life ([2]; human, plasma, 200 mg, 200 mg BID oral monotherapy (Part 1A), C1D15): 306 min
- AUC ([2]; human, plasma, 200 mg, 200 mg BID oral monotherapy (Part 1A), C1D15, geometric mean, read-out: AUCtau): 6370 ng·h/mL
- Cmax ([2]; human, plasma, 200 mg, 200 mg BID oral monotherapy (Part 1A), C1D15 post multiple doses, geometric mean): 1010 ng/mL
- Tmax ([2]; human, plasma, 200 mg, 200 mg BID oral monotherapy (Part 1A), C1D15 post multiple doses, median, read-out: Tmax): 2.5 h
- Cmax ([2]; human, plasma, 300 mg BID oral + fulvestrant (Part 1C), C1D1 post first dose, geometric mean): 849 ng/mL
- AUC ([2]; human, plasma, 300 mg BID oral + fulvestrant (Part 1C), C1D1 post first dose, geometric mean, read-out: AUC12): 6130 ng·h/mL
- Tmax ([2]; human, plasma, 300 mg BID oral + fulvestrant (Part 1C), C1D1 post first dose, median, read-out: Tmax): 2 h
- half-life ([2]; human, plasma, 300 mg BID oral + fulvestrant (Part 1C), C1D15): 342 min
- AUC ([2]; human, plasma, 300 mg BID oral + fulvestrant (Part 1C), C1D15, geometric mean, read-out: AUCtau): 7890 ng·h/mL
- Cmax ([2]; human, plasma, 300 mg BID oral + fulvestrant (Part 1C), C1D15 post multiple doses, geometric mean): 1190 ng/mL
- Tmax ([2]; human, plasma, 300 mg BID oral + fulvestrant (Part 1C), C1D15 post multiple doses, median, read-out: Tmax): 1 h
- Cmax ([2]; human, plasma, 300 mg BID oral + letrozole (Part 1B), C1D1 post first dose, geometric mean): 989 ng/mL
- AUC ([2]; human, plasma, 300 mg BID oral + letrozole (Part 1B), C1D1 post first dose, geometric mean, read-out: AUC12): 6440 ng·h/mL
- Tmax ([2]; human, plasma, 300 mg BID oral + letrozole (Part 1B), C1D1 post first dose, median, read-out: Tmax): 3 h
- half-life ([2]; human, plasma, 300 mg BID oral + letrozole (Part 1B), C1D15): 246 min
- AUC ([2]; human, plasma, 300 mg BID oral + letrozole (Part 1B), C1D15, geometric mean, read-out: AUCtau): 10400 ng·h/mL
- Cmax ([2]; human, plasma, 300 mg BID oral + letrozole (Part 1B), C1D15 post multiple doses, geometric mean): 1520 ng/mL
- Tmax ([2]; human, plasma, 300 mg BID oral + letrozole (Part 1B), C1D15 post multiple doses, median, read-out: Tmax): 1 h
- Cmax ([2]; human, plasma, 300 mg, 300 mg BID oral monotherapy (Part 1A), C1D1 post first dose, geometric mean): 741 ng/mL
- AUC ([2]; human, plasma, 300 mg, 300 mg BID oral monotherapy (Part 1A), C1D1 post first dose, geometric mean, read-out: AUC12): 4560 ng·h/mL
- Tmax ([2]; human, plasma, 300 mg, 300 mg BID oral monotherapy (Part 1A), C1D1 post first dose, median, read-out: Tmax): 3.8 h
- AUC ([2]; human, plasma, 300 mg, 300 mg BID oral monotherapy (Part 1A), C1D15, geometric mean, read-out: AUCtau): 8100 ng·h/mL
- Cmax ([2]; human, plasma, 300 mg, 300 mg BID oral monotherapy (Part 1A), C1D15 post multiple doses, geometric mean): 1170 ng/mL
- Tmax ([2]; human, plasma, 300 mg, 300 mg BID oral monotherapy (Part 1A), C1D15 post multiple doses, median, read-out: Tmax): 2.1 h
- Cmax ([2]; human, plasma, 400 mg BID oral + fulvestrant (Part 1C), C1D1 post first dose, geometric mean): 730 ng/mL
- AUC ([2]; human, plasma, 400 mg BID oral + fulvestrant (Part 1C), C1D1 post first dose, geometric mean, read-out: AUC12): 4840 ng·h/mL
- Tmax ([2]; human, plasma, 400 mg BID oral + fulvestrant (Part 1C), C1D1 post first dose, median, read-out: Tmax): 2.2 h
- half-life ([2]; human, plasma, 400 mg BID oral + fulvestrant (Part 1C), C1D15): 396 min
- Cmax ([2]; human, plasma, 400 mg BID oral + letrozole (Part 1B), C1D1 post first dose, geometric mean): 950 ng/mL
- AUC ([2]; human, plasma, 400 mg BID oral + letrozole (Part 1B), C1D1 post first dose, geometric mean, read-out: AUC12): 7110 ng·h/mL
- Tmax ([2]; human, plasma, 400 mg BID oral + letrozole (Part 1B), C1D1 post first dose, median, read-out: Tmax): 2.2 h
- AUC ([2]; human, plasma, 400 mg BID oral + letrozole (Part 1B), C1D15, geometric mean, read-out: AUCtau): 11500 ng·h/mL
- Cmax ([2]; human, plasma, 400 mg BID oral + letrozole (Part 1B), C1D15 post multiple doses, geometric mean): 1420 ng/mL
- Tmax ([2]; human, plasma, 400 mg BID oral + letrozole (Part 1B), C1D15 post multiple doses, median, read-out: Tmax): 1.6 h
- AUC ([2]; human, plasma, 400 mg BID, 400 mg BID oral + fulvestrant (Part 1C), C1D15, geometric mean, read-out: AUCtau): 9560 ng·h/mL
- Cmax ([2]; human, plasma, 400 mg BID, 400 mg BID oral + fulvestrant (Part 1C), C1D15 post multiple doses, geometric mean): 1380 ng/mL
- Tmax ([2]; human, plasma, 400 mg BID, 400 mg BID oral + fulvestrant (Part 1C), C1D15 post multiple doses, median, read-out: Tmax): 1.1 h
- Cmax ([2]; human, plasma, 400 mg, 400 mg BID oral monotherapy (Part 1A), C1D1 post first dose, geometric mean): 766 ng/mL
- AUC ([2]; human, plasma, 400 mg, 400 mg BID oral monotherapy (Part 1A), C1D1 post first dose, geometric mean, read-out: AUC12): 5110 ng·h/mL
- Tmax ([2]; human, plasma, 400 mg, 400 mg BID oral monotherapy (Part 1A), C1D1 post first dose, median, read-out: Tmax): 2.1 h
- half-life ([2]; human, plasma, 400 mg, 400 mg BID oral monotherapy (Part 1A), C1D15, n = 2): 396 min
- AUC ([2]; human, plasma, 400 mg, 400 mg BID oral monotherapy (Part 1A), C1D15, geometric mean, read-out: AUCtau): 8000 ng·h/mL
- Cmax ([2]; human, plasma, 400 mg, 400 mg BID oral monotherapy (Part 1A), C1D15 post multiple doses, geometric mean): 949 ng/mL
- Tmax ([2]; human, plasma, 400 mg, 400 mg BID oral monotherapy (Part 1A), C1D15 post multiple doses, median, read-out: Tmax): 1 h
- Cmax ([2]; human, plasma, 500 mg, 500 mg BID oral monotherapy (Part 1A), C1D1 post first dose, geometric mean): 637 ng/mL
- AUC ([2]; human, plasma, 500 mg, 500 mg BID oral monotherapy (Part 1A), C1D1 post first dose, geometric mean, read-out: AUC12): 4170 ng·h/mL
- Tmax ([2]; human, plasma, 500 mg, 500 mg BID oral monotherapy (Part 1A), C1D1 post first dose, median, read-out: Tmax): 1.9 h
- AUC ([2]; human, plasma, 500 mg, 500 mg BID oral monotherapy (Part 1A), C1D15, n = 1, read-out: AUCtau): 12500 ng·h/mL
- Cmax ([2]; human, plasma, 500 mg, 500 mg BID oral monotherapy (Part 1A), C1D15 post multiple doses, geometric mean): 1760 ng/mL
- Tmax ([2]; human, plasma, 500 mg, 500 mg BID oral monotherapy (Part 1A), C1D15 post multiple doses, median, read-out: Tmax): 4 h
- Tmax ([2]; human, plasma, following oral dose administration, across cohorts (100 to 500 mg BID), read-out: median Tmax values): 1 to 4 h
- concentration at 15 day ([2]; human, plasma, 100 mg BID oral monotherapy (Part 1A), C1D15, geometric mean, read-out: Cmin): 231 ng/mL
